The record followed here is US8557816B2, “Aurora kinase modulators and method of use” (Amgen Inc., priority 2007, dated 2013).

For assay [1], the target named is T1, AuroraA-TPX2 (Homo sapiens, UniProt O14965).
T1 construct: 20 μL of AuroraA-TPX2 KD GST for a final volume of about 41 μL; GST
T1 sequence (O14965 133-383 limits assumed): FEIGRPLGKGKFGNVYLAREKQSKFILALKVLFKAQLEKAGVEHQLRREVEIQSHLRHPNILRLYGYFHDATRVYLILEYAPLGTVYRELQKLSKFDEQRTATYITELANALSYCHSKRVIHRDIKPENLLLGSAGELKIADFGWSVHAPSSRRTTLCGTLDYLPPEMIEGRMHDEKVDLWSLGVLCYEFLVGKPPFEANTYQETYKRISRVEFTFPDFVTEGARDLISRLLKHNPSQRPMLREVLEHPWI
T1 sequence (Q9ULW0 1-43 partner limits assumed): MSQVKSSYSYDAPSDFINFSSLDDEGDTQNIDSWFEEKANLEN
Nature of the assay: AuroraA-TPX2 Homogeneous Time Resolved Fluorescent (HTRF) kinase assay. The class given is biochemical. The note with it: average; read-out: AurA_IC50_IP (uM Avg). In short, it runs like this:
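HTRF read-out (Eu 615 nm to APC 655 nm) of phosphorylated biotin-PLK, detected with 0.02 nM europium anti-phosphoPLK antibody and 0.0005 mg/mL SA-APC after overnight equilibration.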
On the technique in general: Time-resolved FRET reads energy transfer from a long-lived donor to a nearby acceptor.

The target in assay [2] is T2, AuroraB (Homo sapiens, UniProt Q96GD4).
T2 construct: 20 μL of AuroraB FL H is for a final volume of 41 μL; His
T2 sequence (Q96GD4 whole entry): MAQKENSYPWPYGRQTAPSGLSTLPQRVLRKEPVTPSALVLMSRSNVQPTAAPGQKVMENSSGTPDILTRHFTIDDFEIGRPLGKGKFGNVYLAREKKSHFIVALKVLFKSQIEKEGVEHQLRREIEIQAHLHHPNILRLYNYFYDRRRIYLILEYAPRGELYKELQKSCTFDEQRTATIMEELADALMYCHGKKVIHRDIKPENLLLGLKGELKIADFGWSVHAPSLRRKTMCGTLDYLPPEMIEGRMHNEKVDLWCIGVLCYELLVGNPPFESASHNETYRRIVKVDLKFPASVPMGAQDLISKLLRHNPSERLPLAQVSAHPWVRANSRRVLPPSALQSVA
Nature of the assay: AuroraB Homogeneous Time Resolved Fluorescent (HTRF) kinase assay. The note with it: average; read-out: AurB_IC50_IP (uM Avg). Type of assay: biochemical. Put shortly: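 Full-length His-tagged kinase phosphorylates biotinylated Histone H3 (0.1 μM final) with ATP in pH 7.5 HEPES containing MgCl, MnCl, DTT and BSA for about 90 min. EDTA-containing detection mix with SA-APC and Eu-anti-phosphoHistone H3 then equilibrated about 60 min; HTRF read with 320 nm excitation, emissions 615/655 nm.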

For the molecule `COc1cnc2c(Oc3ccc(Nc4nnc(-c5cccc(C)c5)c5ccccc45)cc3)ccnc2c1` [compound 299, N-(4-((7-(methyloxy)-1,5-naphthyridin-4-yl)oxy)phenyl)-4-(3-methylphenyl)-1-phthalazinamine], the results for the IC50 in assay [1] and in assay [2] were 0.018 µM and 0.015 µM, respectively.
For `CCc1cc(N2CC[C@H]3CCCC[C@@H]3C2)nnc1Nc1ccc(Oc2ccnc3cc(OC)cnc23)cc1` [compound 300, 4-ethyl-N-(4-((7-(methyloxy)-1,5-naphthyridin-4-yl)oxy)phenyl)-6-((4aR,8aS)-octahydro-2(1H)-isoquinolinyl)-3-pyridazinamine], in that order: 0.112 µM and 0.067 µM.
For `Clc1ccc(-c2nnc(Nc3ccc(Sc4ccnc5cc(Br)cnc45)cc3)c3ccccc23)cc1` [compound 301, N-(4-((7-bromo-1,5-naphthyridin-4-yl)thio)phenyl)-4-(4-chlorophenyl)-1-phthalazinamine], in that order: 0.035 µM and 0.063 µM.
The matching figures for `COc1cnc2c(Sc3ccc(Nc4nnc(-c5ccc(Cl)cn5)c5ccccc45)cc3)ccnc2c1` [compound 304, 4-(5-chloro-2-pyridinyl)-N-(4-((7-(methyloxy)-1,5-naphthyridin-4-yl)thio)phenyl)-1-phthalazinamine]: 0.013 µM and 0.019 µM.
As for `COc1cnc2c(Oc3ccc(Nc4nnc(-c5ccc6c(c5)OCO6)c5ccccc45)cc3)ccnc2c1` [compound 306, 4-(1,3-benzodioxol-5-yl)-N-(4-((7-(methyloxy)-1,5-naphthyridin-4-yl)oxy)phenyl)-1-phthalazinamine], the IC50 turned out to be 0.011 µM in assay [1] and 0.03 µM in assay [2].
For `CCc1cc(-c2ccc(C)cc2)nnc1Nc1ccc(Oc2ccnc3cc(OC)cnc23)cc1` [compound 307, 4-ethyl-N-(4-((7-(methyloxy)-1,5-naphthyridin-4-yl)oxy)phenyl)-6-(4-methylphenyl)-3-pyridazinamine], the results for the IC50 in assay [1] and in assay [2] were 0.022 µM and 0.006 µM, respectively.
The matching figures for `Clc1ccc(-c2nnc(Nc3ccc(Sc4ccnc5cccnc45)cc3)c3ccccc23)cc1` [compound 308, 4-(4-chlorophenyl)-N-(4-(1,5-naphthyridin-4-ylthio)phenyl)-1-phthalazinamine]: 0.029 µM and 0.004 µM.
With `c1ccc(-c2nnc(Nc3ccc(Sc4ccnc5cccnc45)cc3)c3ccccc23)cc1` [compound 309, N-(4-(1,5-naphthyridin-4-ylthio)phenyl)-4-phenyl-1-phthalazinamine], the results for the IC50 in assay [1] and in assay [2] were 0.054 µM and 0.003 µM, respectively.
For `c1ccc(-c2nnc(Nc3ccc(Sc4ccnc5ccccc45)cc3)c3ccccc23)cc1` [compound 310, 4-phenyl-N-(4-(4-quinolinylthio)phenyl)-1-phthalazinamine], in that order: 0.209 µM and 0.017 µM.
On to `Cc1csc(-c2nnc(Nc3ccc(Sc4ccnc5cc(C(=O)N6CCOCC6)sc45)cc3)c3ccccc23)c1` [compound 312, (7-(4-(4-(4-methylthiophen-2-yl)phthalazin-1-ylamino)phenylthio)thieno[3,2-b]pyridin-2-yl)(morpholino)methanone], for which the IC50 in assay [1] amounted to 0.022 µM; in assay [2], 0.03 µM.
For `O=C(c1cc2nccc(Sc3ccc(Nc4nnc(-c5ccccc5)c5ccccc45)cc3)c2s1)N1CCOCC1` [compound 313, morpholino(7-(4-(4-phenylphthalazin-1-ylamino)phenylthio)thieno[3,2-b]pyridin-2-yl)methanone], in that order: 0.091 µM and 0.056 µM.
Consider `O=C(c1cc2nccc(Sc3ccc(Nc4nnc(-c5ccc(Cl)cc5)c5ccccc45)cc3)c2s1)N1CCOCC1` [compound 314, (7-(4-(4-(4-chlorophenyl)phthalazin-1-ylamino)phenylthio)thieno[3,2-b]pyridin-2-yl)(morpholino)methanone], for which the IC50 in assay [1] is 0.058 µM; in assay [2], 0.057 µM.
On to `COc1ccc2nccc(Sc3ccc(Nc4nnc(-c5ccc(Cl)cc5)c5ccccc45)cc3)c2c1` [compound 315, 4-(4-chlorophenyl)-N-(4-(6-methoxyquinolin-4-ylthio)phenyl)phthalazin-1-amine], for which the IC50 amounted to 0.036 µM in assay [1] and 0.031 µM in assay [2].
`COc1cnc2c(Oc3ccc(Nc4nnc(-c5cc(Cl)cs5)c5ccccc45)cc3)ccnc2c1` [compound 316, 4-(4-chloro-2-thienyl)-N-(4-((7-(methyloxy)-1,5-naphthyridin-4-yl)oxy)phenyl)-1-phthalazinamine]: the results for the IC50 in assay [1] and in assay [2] were 0.014 µM and 0.023 µM, respectively.
For `COc1cnc2c(Oc3ccc(Nc4nnc(-c5cccc(C)c5)c5ccccc45)cc3)ccnc2c1` [compound 317, N-(4-((7-(methyloxy)-1,5-naphthyridin-4-yl)oxy)phenyl)-4-(3-methylphenyl)-1-phthalazinamine], in that order: 0.018 µM and 0.015 µM.
For `COc1ccc2c(Cc3ccc(Nc4nnc(-c5ccccc5)c5ccccc45)cc3)ccnc2c1` [compound 319, N-(4-((7-(methyloxy)-4-quinolinyl)methyl)phenyl)-4-phenyl-1-phthalazinamine], in that order: 0.176 µM and 0.02 µM.
For `CCc1cc(N2CC[C@H]3CCCC[C@@H]3C2)nnc1Nc1ccc(Oc2ccnc3cc(OC)cnc23)cc1` [compound 320, 4-ethyl-N-(4-((7-(methyloxy)-1,5-naphthyridin-4-yl)oxy)phenyl)-6-((4aR,8aS)-octahydro-2(1H)-isoquinolinyl)-3-pyridazinamine], in that order: 0.112 µM and 0.067 µM.
In the case of `CCc1cc(N2CCCCC2)nnc1Nc1ccc(Oc2ccnc3cc(OC)cnc23)cc1` [compound 321, 4-ethyl-N-(4-((7-(methyloxy)-1,5-naphthyridin-4-yl)oxy)phenyl)-6-(1-piperidinyl)-3-pyridazinamine], the values for the IC50 in assay [1] and in assay [2] were 0.304 µM and 0.051 µM, respectively.
The matching figures for `CCc1cc(-c2ccc(C)cc2)nnc1Nc1ccc(Sc2ccnc3cc(OC)cnc23)cc1` [compound 322, 4-ethyl-N-(4-((7-(methyloxy)-1,5-naphthyridin-4-yl)thio)phenyl)-6-(4-methylphenyl)-3-pyridazinamine]: 0.033 µM and 0.032 µM.
As to `Clc1ccc(-c2nnc(Nc3ccc(Sc4ccnc5cc(Br)cnc45)cc3)c3ccccc23)cc1` [compound 324, N-(4-((7-bromo-1,5-naphthyridin-4-yl)thio)phenyl)-4-(4-chlorophenyl)-1-phthalazinamine], the results for the IC50 in assay [1] and in assay [2] were 0.035 µM and 0.063 µM, respectively.
For `COc1cnc2c(Sc3ccc(Nc4nnc(-c5ccc(Cl)cn5)c5ccccc45)cc3)ccnc2c1` [compound 325, 4-(5-chloro-2-pyridinyl)-N-(4-((7-(methyloxy)-1,5-naphthyridin-4-yl)thio)phenyl)-1-phthalazinamine], in that order: 0.013 µM and 0.019 µM.
For `COc1cc2c(Oc3ccc(Nc4nnc(-c5ccccc5)c5ccccc45)cc3)ccnc2cc1OCc1ccccc1` [compound 326, N-(4-((6-(methyloxy)-7-((phenylmethyl)oxy)-4-quinolinyl)oxy)phenyl)-4-phenyl-1-phthalazinamine], in that order: 0.026 µM and 0.039 µM.
With `COc1cccc(-c2nnc(Nc3ccc(Sc4ccnc5ccccc45)cc3)c3ccccc23)n1` [compound 327, 4-(6-(methyloxy)-2-pyridinyl)-N-(4-(4-quinolinylthio)phenyl)-1-phthalazinamine], the IC50 in assay [1] turned out to be 0.118 µM; in assay [2], 0.014 µM.
For `COc1ccc2c(Cc3ccc(Nc4nnc(-c5ccc(Cl)cc5)c5ccccc45)cc3)ccnc2c1` [compound 328, 4-(4-chlorophenyl)-N-(4-((7-(methyloxy)-4-quinolinyl)methyl)phenyl)-1-phthalazinamine], in that order: 0.047 µM and 0.032 µM.
For `c1ccc(-c2nnc(Nc3ccc(Sc4ccnc5[nH]ccc45)cc3)c3ccccc23)cc1` [compound 329, 4-phenyl-N-(4-(1H-pyrrolo[2,3-b]pyridin-4-ylthio)phenyl)-1-phthalazinamine], in that order: 0.114 µM and 0.009 µM.
Take `Clc1ccc(-c2nnc(Nc3ccc(Sc4ccnc5[nH]ccc45)cc3)c3ccccc23)cc1` [compound 330, 4-(4-chlorophenyl)-N-(4-(1H-pyrrolo[2,3-b]pyridin-4-ylthio)phenyl)-1-phthalazinamine]: the values for the IC50 in assay [1] and in assay [2] were 0.038 µM and 0.009 µM, respectively.
The matching figures for `COc1ccc2c(Sc3ccc(Nc4nnc(-c5ccccc5)c5ccccc45)cc3)ccnc2c1` [compound 331, N-(4-((7-(methyloxy)-4-quinolinyl)thio)phenyl)-4-phenyl-1-phthalazinamine]: 0.192 µM and 0.155 µM.
Take `Clc1ccc(-c2nnc(Nc3ccc(Sc4ccnc5ccsc45)cc3)c3ccccc23)cc1` [compound 332, 4-(4-chlorophenyl)-N-(4-(thieno[3,2-b]pyridin-7-ylthio)phenyl)-1-phthalazinamine]: the results for the IC50 in assay [1] and in assay [2] were 0.016 µM and 0.003 µM, respectively.
